Measured values as given in US8802597B2, “Herbicidal pyrimidines” (E I du Pont de Nemours and Company, priority 2003, dated 2014).
Where two headings read alike, the source gives them in different places.

What was measured:
Type in all cases: in vivo
[1] = test system: giant foxtail (Setaria faberii); test: Test B pre/postemergence; conditions: Setaria faberi; for pest or weed control at 125 g/ha: 125 g ai/ha; for pest or weed control at 500 g/ha: 500 g ai/ha
Procedure, shortened: (§1)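 Compounds in non-phytotoxic solvent with surfactant applied preemergence to planted seeds or postemergence to plants 2 to 18 cm tall (1- to 4-leaf stage). Greenhouse 13 to 15 days, then visual rating against controls on a 0 to 100 scale (100 = complete control).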

[2] = test system: morningglory (Ipomoea coccinea); test: Test B pre/postemergence; conditions: Ipomoea; for pest or weed control at 125 g/ha: 125 g ai/ha; for pest or weed control at 500 g/ha: 500 g ai/ha
Procedure, shortened: as §1

[3] = test system: velvetleaf (Abutilon theophrasti); test: Test B pre/postemergence; conditions: Abutilon theophrasti; for pest or weed control at 125 g/ha: 125 g ai/ha; for pest or weed control at 500 g/ha: 500 g ai/ha
Procedure, shortened: as §1

[4] = test system: pigweed (Amaranthus retroflexus); test: Test B pre/postemergence; conditions: Amaranthus retroflexus; for pest or weed control at 125 g/ha: 125 g ai/ha; for pest or weed control at 500 g/ha: 500 g ai/ha
Procedure, shortened: as §1

[5] = test system: crabgrass (Digitaria sanguinalis); test: Test B pre/postemergence; conditions: Digitaria sanguinalis; for pest or weed control at 125 g/ha: 125 g ai/ha; for pest or weed control at 500 g/ha: 500 g ai/ha
Procedure, shortened: as §1

[6] = test system: barnyardgrass (Echinochloa crus-galli); test: Test B pre/postemergence; conditions: Echinochloa crus-galli; for pest or weed control at 125 g/ha: 125 g ai/ha; for pest or weed control at 500 g/ha: 500 g ai/ha
Procedure, shortened: as §1

[7] = test system: corn (Zea mays); test: Test B pre/postemergence; conditions: Zea mays
Procedure, shortened: as §1

[8] = test system: Surinam grass (Brachiaria decumbens); test: Test B pre/postemergence; conditions: Urochloa decumbens; for pest or weed control at 125 g/ha: 125 g ai/ha; for pest or weed control at 500 g/ha: 500 g ai/ha
Procedure, shortened: as §1

[9] = test system: lambsquarters (Chenopodium album); test: Test B pre/postemergence; conditions: Chenopodium album; for pest or weed control at 125 g/ha: 125 g ai/ha; for pest or weed control at 500 g/ha: 500 g ai/ha
Procedure, shortened: as §1

[10] = test system: wheat (Triticum aestivum); test: Test B pre/postemergence; conditions: Triticum aestivum; for plant injury at 125 g/ha: 125 g ai/ha; for plant injury at 500 g/ha: 500 g ai/ha
Procedure, shortened: as §1

[11] = test system: cocklebur (Xanthium strumarium); test: Test B pre/postemergence; conditions: Xanthium strumarium; for pest or weed control at 125 g/ha: 125 g ai/ha; for pest or weed control at 500 g/ha: 500 g ai/ha
Procedure, shortened: as §1

[12] = test system: wild oat (Avena fatua); test: Test B postemergence; conditions: Avena fatua, post-emergence
Procedure, shortened: as §1

[13] = test system: blackgrass (Alopecurus myosuroides); test: Test B postemergence; conditions: Alopecurus myosuroides, post-emergence
Procedure, shortened: as §1

[14] = test system: duck salad (Heteranthera limosa); test: Test B flooded paddy test; conditions: Heteranthera limosa, Flood, 1000 g ai/ha; scale 0 to 100; read-out: Plant response rating, Ducksalad
Procedure, shortened: (§2)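 Rice, umbrella sedge, duck salad and barnyardgrass grown to 2-leaf stage under flooded paddy conditions and treated with formulated test chemicals. Kept in greenhouse 13–15 days, then visually rated against untreated controls on a 0–100 scale (0 no effect, 100 complete control).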

[15] = test system: rice (Oryza sativa); test: Test B flooded paddy test; conditions: Oryza sativa, Flood, 1000 g ai/ha; scale 0 to 100; read-out: Plant response rating, Rice
Procedure, shortened: as §2

[16] = test system: umbrella sedge (Cyperus difformis); test: Test B flooded paddy test; conditions: Cyperus difformis, Flood, 1000 g ai/ha; scale 0 to 100; read-out: Plant response rating, Sedge, Umbrella
Procedure, shortened: as §2

[17] = test system: barnyardgrass (Echinochloa crus-galli); test: Test B flooded paddy test; conditions: Echinochloa crus-galli, Flood, 1000 g ai/ha; scale 0 (no effect) to 100 (complete control); read-out: Plant response rating, Barnyardgrass
Procedure, shortened: as §2

CCOC(=O)c1nc(C2CC2)nc(N)c1F [Compound 30]
pest or weed control at 125 g/ha ([1]; post-emergence, Postemergence, scale 0 to 100 (0 no effect, 100 complete control), read-out: Foxtail, Giant plant response rating): 0% | pest or weed control at 500 g/ha ([1]; post-emergence, Postemergence, scale 0 to 100, read-out: Plant response rating, Foxtail, Giant): 90% | pest or weed control at 125 g/ha ([1]; pre-emergence, Preemergence, scale 0 to 100 (0 no effect, 100 complete control), read-out: Plant response rating, Foxtail, Giant): 10% | pest or weed control at 500 g/ha ([1]; pre-emergence, Preemergence, scale 0 to 100 (0 no effect, 100 complete control), read-out: Foxtail, Giant plant response rating): 80% | pest or weed control at 125 g/ha ([2]; post-emergence, Postemergence, scale 0 to 100 (0 no effect, 100 complete control), read-out: Morningglory plant response rating): 90% | pest or weed control at 500 g/ha ([2]; post-emergence, Postemergence, scale 0 to 100, read-out: Plant response rating, Morningglory): 100% | pest or weed control at 125 g/ha ([2]; pre-emergence, Preemergence, scale 0 to 100 (0 no effect, 100 complete control), read-out: Plant response rating, Morningglory): 90% | pest or weed control at 500 g/ha ([2]; pre-emergence, Preemergence, scale 0 to 100 (0 no effect, 100 complete control), read-out: Morningglory plant response rating): 100% | pest or weed control at 125 g/ha ([3]; post-emergence, Postemergence, scale 0 to 100 (0 no effect, 100 complete control), read-out: Velvetleaf plant response rating): 50% | pest or weed control at 500 g/ha ([3]; post-emergence, Postemergence, scale 0 to 100, read-out: Plant response rating, Velvetleaf): 90% | pest or weed control at 125 g/ha ([3]; pre-emergence, Preemergence, scale 0 to 100 (0 no effect, 100 complete control), read-out: Plant response rating, Velvetleaf): 10% | pest or weed control at 500 g/ha ([3]; pre-emergence, Preemergence, scale 0 to 100 (0 no effect, 100 complete control), read-out: Velvetleaf plant response rating): 80% | pest or weed control at 125 g/ha ([4]; post-emergence, Postemergence, scale 0 to 100 (0 no effect, 100 complete control), read-out: Pigweed plant response rating): 90% | pest or weed control at 500 g/ha ([4]; post-emergence, Postemergence, scale 0 to 100, read-out: Plant response rating, Pigweed): 100% | pest or weed control at 125 g/ha ([4]; pre-emergence, Preemergence, scale 0 to 100 (0 no effect, 100 complete control), read-out: Plant response rating, Pigweed): 50% | pest or weed control at 500 g/ha ([4]; pre-emergence, Preemergence, scale 0 to 100 (0 no effect, 100 complete control), read-out: Pigweed plant response rating): 90% | pest or weed control at 125 g/ha ([5]; post-emergence, Postemergence, scale 0 to 100 (0 no effect, 100 complete control), read-out: Crabgrass plant response rating): 30% | pest or weed control at 500 g/ha ([5]; post-emergence, Postemergence, scale 0 to 100, read-out: Plant response rating, Crabgrass): 90% | pest or weed control at 125 g/ha ([5]; pre-emergence, Preemergence, scale 0 to 100 (0 no effect, 100 complete control), read-out: Plant response rating, Crabgrass): 50% | pest or weed control at 500 g/ha ([5]; pre-emergence, Preemergence, scale 0 to 100 (0 no effect, 100 complete control), read-out: Crabgrass plant response rating): 90% | pest or weed control at 125 g/ha ([6]; post-emergence, Postemergence, scale 0 to 100 (0 no effect, 100 complete control), read-out: Barnyardgrass plant response rating): 0% | pest or weed control at 500 g/ha ([6]; post-emergence, Postemergence, scale 0 to 100, read-out: Plant response rating, Barnyardgrass): 80% | pest or weed control at 125 g/ha ([6]; pre-emergence, Preemergence, scale 0 to 100 (0 no effect, 100 complete control), read-out: Plant response rating, Barnyardgrass): 10% | pest or weed control at 500 g/ha ([6]; pre-emergence, Preemergence, scale 0 to 100 (0 no effect, 100 complete control), read-out: Barnyardgrass plant response rating): 40% | plant injury at 125 g/ha ([7]; post-emergence, Postemergence, 125 g ai/ha, scale 0 to 100 (0 no effect, 100 complete control), read-out: Corn plant response rating): 0% | Corn plant response rating (crop injury, 0 = no effect, 100 = complete kill) at 500 g/ha ([7]; post-emergence, Postemergence, 500 g ai/ha, scale 0 to 100): 30% | Corn plant response rating (crop injury, 0 = no effect, 100 = complete kill) at 125 g/ha ([7]; pre-emergence, Preemergence, 125 g ai/ha, scale 0 to 100 (0 no effect, 100 complete control)): 10% | plant injury at 500 g/ha ([7]; pre-emergence, Preemergence, 500 g ai/ha, scale 0 to 100 (0 no effect, 100 complete control), read-out: Corn plant response rating): 80% | pest or weed control at 125 g/ha ([8]; post-emergence, Postemergence, scale 0 to 100 (0 no effect, 100 complete control), read-out: Surinam Grass plant response rating): 10% | pest or weed control at 500 g/ha ([8]; post-emergence, Postemergence, scale 0 to 100, read-out: Plant response rating, Surinam Grass): 80% | pest or weed control at 125 g/ha ([8]; pre-emergence, Preemergence, scale 0 to 100 (0 no effect, 100 complete control), read-out: Plant response rating, Surinam Grass): 0% | pest or weed control at 500 g/ha ([8]; pre-emergence, Preemergence, scale 0 to 100 (0 no effect, 100 complete control), read-out: Surinam Grass plant response rating): 80% | pest or weed control at 125 g/ha ([9]; post-emergence, Postemergence, scale 0 to 100 (0 no effect, 100 complete control), read-out: Lambsquarters plant response rating): 90% | pest or weed control at 500 g/ha ([9]; post-emergence, Postemergence, scale 0 to 100, read-out: Plant response rating, Lambsquarters): 100% | pest or weed control at 125 g/ha ([9]; pre-emergence, Preemergence, scale 0 to 100 (0 no effect, 100 complete control), read-out: Plant response rating, Lambsquarters): 80% | pest or weed control at 500 g/ha ([9]; pre-emergence, Preemergence, scale 0 to 100 (0 no effect, 100 complete control), read-out: Lambsquarters plant response rating): 90% | plant injury at 125 g/ha ([10]; post-emergence, Postemergence, scale 0 to 100 (0 no effect, 100 complete control), read-out: Wheat plant response rating): 50% | plant injury at 500 g/ha ([10]; post-emergence, Postemergence, scale 0 to 100, read-out: Plant response rating, Wheat): 60% | plant injury at 125 g/ha ([10]; pre-emergence, Preemergence, scale 0 to 100 (0 no effect, 100 complete control), read-out: Plant response rating, Wheat): 30% | plant injury at 500 g/ha ([10]; pre-emergence, Preemergence, scale 0 to 100 (0 no effect, 100 complete control), read-out: Wheat plant response rating): 60% | pest or weed control at 125 g/ha ([11]; post-emergence, Postemergence, scale 0 to 100 (0 no effect, 100 complete control), read-out: Cocklebur plant response rating): 100% | pest or weed control at 500 g/ha ([11]; post-emergence, Postemergence, scale 0 to 100, read-out: Plant response rating, Cocklebur): 100% | pest or weed control at 125 g/ha ([11]; pre-emergence, Preemergence, scale 0 to 100 (0 no effect, 100 complete control), read-out: Plant response rating, Cocklebur): 60% | pest or weed control at 500 g/ha ([11]; pre-emergence, Preemergence, scale 0 to 100 (0 no effect, 100 complete control), read-out: Cocklebur plant response rating): 100% | pest or weed control at 125 g/ha ([12]; 125 g ai/ha, scale 0 to 100 (0 no effect, 100 complete control), read-out: Oat, Wild plant response rating): 60% | pest or weed control at 500 g/ha ([12]; 500 g ai/ha, scale 0 to 100, read-out: Plant response rating, Oat, Wild): 70% | pest or weed control at 125 g/ha ([13]; 125 g ai/ha, scale 0 to 100 (0 no effect, 100 complete control), read-out: Blackgrass plant response rating): 60% | pest or weed control at 500 g/ha ([13]; 500 g ai/ha, scale 0 to 100, read-out: Plant response rating, Blackgrass): 70% | pest or weed control at 1000 g/ha [14]: 0% | plant injury at 1000 g/ha [15]: 0% | pest or weed control at 1000 g/ha [16]: 0% | pest or weed control at 1000 g/ha [17]: 0%
